Data on two molecules can be found in US20240138404A1, “DISPENSER AND METHOD OF USE THEREOF” (S.C. JOHNSON & SON, INC., priority 2019, published 2024).

Data set [1] is described as follows: Emanation (release) rate of active agent from three-layer substrate 250 by weight loss over 40 days (Example 1, FIG. 13). It is filed as physicochemical. As to conditions: substrate 250, approx. 30 cm^2, dosed with approx. 75 mg active agent.
Data set [2] is described as follows: Emanation rate of transfluthrin from dispensing device 200 with substrate 250 in a sealed chamber over 75 days (Example 2, FIGS. 15A-15C). It is filed as physicochemical. Particulars: for constant emanation rate: dose about 2400 mg. On the procedure:
In connection with the examples herein, the emanation rates and the amount of active agent, e.g., an amount of transfluthrin, remaining in the substrate of the examples herein were measured by analyzing the weight loss of a particular substrate over time. More particularly, the amount of active agent remaining within a particular substrate may be calculated by first measuring the substrate 250 prior to dosing the substrate 250 with the active agent (or volatile material) and then subtracting that value from the weight of the substrate 250 at any given time after dosing. For example, with reference to Example 1, an initial weight of the substrate 250 was measured, the substrate 250 was dosed with an active agent (i.e., transfluthrin or metofluthrin), and a weight of the substrate 250 was measured multiple times after initial dosage and after emanation of the active agent into the ambient environment. The initial weight of the substrate 250 was then subtracted from a weight of the substrate 250 after initial dosage and this value indicated the remaining active agent within the substrate 250. Further, after determining the remaining active agent within the substrate 250, the amount of active agent (or volatile material) emanated to the ambient environment may also be calculated by subtracting the amount of active agent remaining in the substrate 250 from the initial dosage amount of the active agent. All weight measurements can be performed on an analytical scale. Further, the examples herein were conducted in a closed environment, such as a sealed chamber, having a controlled airflow rate.
In this example, the substrate 250 includes three layers, such as the first layer 252, the second layer 254, and the third layer 256. Further, in this embodiment, the first layer 252 is a woven material having a honeycomb weave pattern, a pore size of 3 mm and a thickness of 0.3 mm; the second layer 254 is a fibrous material constructed from polyester and the substrate 250 has a surface density of about 340 g/m^2; and the third layer 256 is a woven material having a honeycomb weave pattern, a pore size of 3 mm and a thickness of 0.3 mm. The substrate 250 was dosed with about 2400 mg of transfluthrin and the concentration of the transfluthrin within the substrate 250 at different locations in a sealed chamber was measured over a period of 75 days. During this trial, the substrate 250 was exposed to an airflow of about 4.8 meters/minute.

Where [3] appears, read: first location within sealed chamber (FIG. 15A).
[4] abbreviates: second location within sealed chamber (FIG. 15B).
Where [5] appears, read: third location within sealed chamber (FIG. 15C).

Turning to `C/C=C/C1C(C(=O)OCc2c(F)c(F)c(COC)c(F)c2F)C1(C)C` (centres unmarked) [metofluthrin], in data set [1], the “constant linear release (emanation) rate” value is given as “about 1.9 mg/day” and the “time over which the substrate emanated the volatile material at constant linear rate” value turned out to be 20 days.
Regarding `CC1(C)[C@H](C=C(Cl)Cl)[C@H]1C(=O)OCc1c(F)c(F)cc(F)c1F` [transfluthrin], in data set [1], the “constant linear release (emanation) rate” value is “about 1.5 mg/day” and the “time over which the substrate emanated the volatile material at constant linear rate” value was “approximately 36 days”. For the same molecule, the “period of emanation at constant, linear rate, from linear regression lines” value in data set [2] (extrapolated from the linear regression lines of FIGS. 15A-15C) was “exceeding one year”. For the same molecule, in data set [2] (setting [3]), the “period of constant emanation” value is “greater than 70 days” and the constant emanation rate entry was “about 4 mg/day”. In data set [2] (setting [4]), the “period of constant emanation” value was “greater than 70 days” and the constant emanation rate entry was “about 6 mg/day”. In addition, in data set [2] (setting [5]), the “period of constant emanation” value is “greater than 70 days” and the constant emanation rate entry is given as “about 4 mg/day”.
